Test results reported in patent US11504382B2, “Tricyclic inhibitors of Hepatitis B virus” (Antios Therapeutics, Inc., priority 2018, dated 2022).

System: HBV
Assay: HBV inhibition assay in HepAD38 cells (extracellular HBV DNA by direct qPCR)
Format: cell-based, Hepatitis B virus
Details: Hepatitis B virus, 96 hours; for EC50: 8-point dose-response curve, read-out: HBV inh EC50
[1] = relative to non-treated reference, read-out: Anti HBV Activity (conc μM)

For `C[C@H](N)C(=O)N1C[C@@H]2COc3c(cn(C)c3C(=O)Nc3cc(F)c(F)c(F)c3)S(=O)(=O)N[C@@H]2C1` (mixture of isomers) [Example E67, cis-2-(L-alanyl)-7-methyl-N-(3,4,5-trifluorophenyl)-2,3,3a,4,10,10a-hexahydro-1H,7H-dipyrrolo[3,4-b:3′,4′-f][1,4,5]oxathiazocine-8-carboxamide 5,5-dioxide], the inhibition at 0.1 µM [1] was less than 50%.
With `Cn1cc2c(c1C(=O)Nc1cc(F)c(F)c(F)c1)OC[C@H]1CN(C(=O)[C@@H](N)CO)C[C@H]1NS2(=O)=O` (mixture of isomers) [Example E68, cis-2-(L-seryl)-7-methyl-N-(3,4,5-trifluorophenyl)-2,3,3a,4,10,10a-hexahydro-1H,7H-dipyrrolo[3,4-b:3′,4′-f][1,4,5]oxathiazocine-8-carboxamide 5,5-dioxide] the inhibition at 0.1 µM [1] was less than 50%.
Molecule `C[C@@H](O)[C@H](N)C(=O)N1C[C@@H]2COc3c(cn(C)c3C(=O)Nc3cc(F)c(F)c(F)c3)S(=O)(=O)N[C@@H]2C1` (mixture of isomers) [Example E69, cis-2-(L-threonyl)-7-methyl-N-(3,4,5-trifluorophenyl)-2,3,3a,4,10,10a-hexahydro-1H,7H-dipyrrolo[3,4-b:3′,4′-f][1,4,5]oxathiazocine-8-carboxamide 5,5-dioxide] has an inhibition at 0.1 µM [1] of less than 50%.
`CCOC(=O)N1CC2CCOc3c(cn(C)c3C(=O)Nc3cc(F)c(F)c(F)c3)S(=O)(=O)NC2C1` (mixture of isomers) [Example E156, Cis/Trans Ethyl 7-methyl-8-((3,4,5-trifluorophenyl)carbamoyl)-1,3a,4,10,11,11a-hexahydro-7H-dipyrrolo[3,4-b:3′,4′-f][1,4,5]oxathiazocine-2(3H)-carboxylate 5,5-dioxide] showed an EC50 of less than 1000 nM.
`Cn1cc2c(c1C(=O)Nc1ccc(F)c(F)c1)OC1COCC1NS2(=O)=O` (racemic) [Example E4, trans-N-(3,4-difluorophenyl)-7-methyl-1,3a,4,9a-tetrahydro-3H,7H-furo[3,4-f]pyrrolo[3,4-b][1,4,5]oxathiazepine-8-carboxamide 5,5-dioxide] gave an inhibition at 1 µM (1 μM, relative to non-treated reference, read-out: Anti HBV Activity (conc μM)) greater than 50% and an EC50 of less than 1000 nM.
For `Cn1cc2c(c1C(=O)Nc1ccc(F)c(F)c1)OCC1CCCC1NS2(=O)=O` (racemic) [Example E6, cis-N-(3,4-difluorophenyl)-2-methyl-5a,6,7,8,8a,9-hexahydro-2H,5H-cyclopenta[f]pyrrolo[3,4-b][1,4,5]oxathiazocine-1-carboxamide 4,4-dioxide], the inhibition at 0.5 µM [1] was greater than 50% and the EC50 was less than 1000 nM.
Work on `Cn1cc2c(c1C(=O)Nc1cc(F)c(F)c(F)c1)OC1COCC1NS2(=O)=O` (racemic) [Example E7, trans-7-methyl-N-(3,4,5-trifluorophenyl)-1,3a,4,9a-tetrahydro-3H,7H-furo[3,4-f]pyrrolo[3,4-b][1,4,5]oxathiazepine-8-carboxamide 5,5-dioxide] yielded an EC50 of less than 1000 nM.
In the case of `CCOC(=O)N1CC2COc3c(cn(C)c3C(=O)Nc3cc(F)c(F)c(F)c3)S(=O)(=O)NC2C1` (racemic) [Example E10, Cis-Ethyl 7-methyl-8-((3,4,5-trifluorophenyl)carbamoyl)-3a,4,10,10a-tetrahydro-1H,7H-dipyrrolo[3,4-b:3′,4′-f][1,4,5]oxathiazocine-2(3H)-carboxylate 5,5-dioxide], the inhibition at 0.5 µM [1] is reported as greater than 50% and the EC50 is reported as less than 1000 nM.
`Cn1cc2c(c1C(=O)Nc1cc(F)c(F)c(F)c1)OCC1CNCC1NS2(=O)=O` (racemic) [Example E11, cis-7-methyl-N-(3,4,5-trifluorophenyl)-2,3,3a,4,10,10a-hexahydro-1H,7H-dipyrrolo[3,4-b:3′,4′-f][1,4,5]oxathiazocine-8-carboxamide 5,5-dioxide] showed an inhibition at 0.1 µM [1] greater than 50% and an EC50 of less than 1000 nM.
Molecule `CN1CC2COc3c(cn(C)c3C(=O)Nc3cc(F)c(F)c(F)c3)S(=O)(=O)NC2C1` (racemic) [Example E12, cis-2,7-dimethyl-N-(3,4,5-trifluorophenyl)-2,3,3a,4,10,10a-hexahydro-1H,7H-dipyrrolo[3,4-b:3′,4′-f][1,4,5]oxathiazocine-8-carboxamide 5,5-dioxide] has an inhibition at 0.1 µM [1] greater than 50% and an EC50 of less than 1000 nM.
`CCOC(=O)N1CC2COc3c(cn(C)c3C(=O)Nc3ccc(F)c(F)c3)S(=O)(=O)NC2C1` (racemic) [Example E13, Cis-Ethyl 8-((3,4-difluorophenyl)carbamoyl)-7-methyl-3a,4,10,10a-tetrahydro-1H,7H-dipyrrolo[3,4-b:3′,4′-f][1,4,5]oxathiazocine-2(3H)-carboxylate 5,5-dioxide] showed an inhibition at 0.1 µM [1] greater than 50% and an EC50 of less than 1000 nM.
Work on `CCOC(=O)N1CC2COc3c(cn(C)c3C(=O)Nc3ccc(F)c(C)c3)S(=O)(=O)NC2C1` (racemic) [Example E14, Cis-Ethyl 8-((4-fluoro-3-methylphenyl)carbamoyl)-7-methyl-3a,4,10,10a-tetrahydro-1H,7H-dipyrrolo[3,4-b:3′,4′-f][1,4,5]oxathiazocine-2(3H)-carboxylate 5,5-dioxide] yielded an inhibition at 0.1 µM [1] greater than 50% and an EC50 of less than 1000 nM.
For `CCOC(=O)N1CC2COc3c(cn(C)c3C(=O)Nc3ccc(F)c(Cl)c3)S(=O)(=O)NC2C1` (racemic) [Example E15, Cis-Ethyl 8-((3-chloro-4-fluorophenyl)carbamoyl)-7-methyl-3a,4,10,10a-tetrahydro-1H,7H-dipyrrolo[3,4-b:3′,4′-f][1,4,5]oxathiazocine-2(3H)-carboxylate 5,5-dioxide], the inhibition at 0.1 µM [1] was greater than 50% and the EC50 was less than 1000 nM.
With `CCOC(=O)N1CC2COc3c(cn(C)c3C(=O)Nc3ccc(F)c(C(F)F)c3)S(=O)(=O)NC2C1` (racemic) [Example E16, Cis-Ethyl 8-((3-(difluoromethyl)-4-fluorophenyl)carbamoyl)-7-methyl-3a,4,10,10a-tetrahydro-1H,7H-dipyrrolo[3,4-b:3′,4′-f][1,4,5]oxathiazocine-2(3H)-carboxylate 5,5-dioxide] the inhibition at 0.1 µM [1] was greater than 50% and the EC50 was less than 1000 nM.
Molecule `CCOC(=O)N1CC2COc3c(cn(C)c3C(=O)Nc3ccc(F)c(C#N)c3)S(=O)(=O)NC2C1` (racemic) [Example E17, Cis-Ethyl 8-((3-cyano-4-fluorophenyl)carbamoyl)-7-methyl-3a,4,10,10a-tetrahydro-1H,7H-dipyrrolo[3,4-b:3′,4′-f][1,4,5]oxathiazocine-2(3H)-carboxylate 5,5-dioxide] has an inhibition at 0.1 µM [1] greater than 50% and an EC50 of less than 1000 nM.
With `CC(C)S(=O)(=O)N1CC2COc3c(cn(C)c3C(=O)Nc3cc(F)c(F)c(F)c3)S(=O)(=O)NC2C1` (racemic) [Example E18, cis-2-(isopropylsulfonyl)-7-methyl-N-(3,4,5-trifluorophenyl)-2,3,3a,4,10,10a-hexahydro-1H,7H-dipyrrolo[3,4-b:3′,4′-f][1,4,5]oxathiazocine-8-carboxamide 5,5-dioxide] the inhibition at 0.1 µM [1] was greater than 50% and the EC50 was less than 1000 nM.
Work on `Cn1cc2c(c1C(=O)Nc1cc(F)c(F)c(F)c1)OCC1CN(S(C)(=O)=O)CC1NS2(=O)=O` (racemic) [Example E19, cis-7-methyl-2-(methylsulfonyl)-N-(3,4,5-trifluorophenyl)-2,3,3a,4,10,10a-hexahydro-1H,7H-dipyrrolo[3,4-b:3′,4′-f][1,4,5]oxathiazocine-8-carboxamide 5,5-dioxide] yielded an inhibition at 0.1 µM [1] greater than 50% and an EC50 of less than 1000 nM.
`Cn1cc2c(c1C(=O)Nc1cc(F)c(F)c(F)c1)OCC1CN(S(=O)(=O)C3CC3)CC1NS2(=O)=O` (racemic) [Example E20, cis-2-(cyclopropylsulfonyl)-7-methyl-N-(3,4,5-trifluorophenyl)-2,3,3a,4,10,10a-hexahydro-1H,7H-dipyrrolo[3,4-b:3′,4′-f][1,4,5]oxathiazocine-8-carboxamide 5,5-dioxide] gave an inhibition at 0.1 µM [1] greater than 50% and an EC50 of less than 1000 nM.
`CC(C)NS(=O)(=O)N1CC2COc3c(cn(C)c3C(=O)Nc3cc(F)c(F)c(F)c3)S(=O)(=O)NC2C1` (racemic) [Example E21, cis-2-(N-isopropylsulfamoyl)-7-methyl-N-(3,4,5-trifluorophenyl)-2,3,3a,4,10,10a-hexahydro-1H,7H-dipyrrolo[3,4-b:3′,4′-f][1,4,5]oxathiazocine-8-carboxamide 5,5-dioxide] showed an inhibition at 0.1 µM [1] greater than 50% and an EC50 of less than 1000 nM.
Work on `Cn1cc2c(c1C(=O)Nc1cc(F)c(F)c(F)c1)OCC1CN(C(=O)OC3CO[C@H]4OCC[C@@H]34)CC1NS2(=O)=O` (mixture of isomers) [Example E22, cis-(3R,3aS,6aR)-hexahydrofuro[2,3-b]furan-3-yl 7-methyl-8-((3,4,5-trifluorophenyl)carbamoyl)-3a,4,10,10a-tetrahydro-1H,7H-dipyrrolo[3,4-b:3′,4′-f][1,4,5]oxathiazocine-2(3H)-carboxylate 5,5-dioxide] yielded an inhibition at 0.1 µM [1] greater than 50% and an EC50 of less than 1000 nM.
Work on `CNC(=O)N1CC2COc3c(cn(C)c3C(=O)Nc3cc(F)c(F)c(F)c3)S(=O)(=O)NC2C1` (racemic) [Example E23, (3aR,10aR) and (3aS,10aS)—N^2,7-dimethyl-N^8-(3,4,5-trifluorophenyl)-3a,4,10,10a-tetrahydro-1H,7H-dipyrrolo[3,4-b:3′,4′-f][1,4,5]oxathiazocine-2,8(3H)-dicarboxamide 5,5-dioxide] yielded an inhibition at 0.1 µM [1] greater than 50% and an EC50 of less than 1000 nM.
`Cn1cc2c(c1C(=O)Nc1cc(F)c(F)c(F)c1)OCC1CN(C(=O)OC(C)(C)C)CC1NS2(=O)=O` (racemic) [Example E24, Tert-Butyl (3aS,10aS and 3aR,10aR) 7-methyl-8-((3,4,5-trifluorophenyl)carbamoyl)-3a,4,10,10a-tetrahydro-1H,7H-dipyrrolo[3,4-b:3′,4′-f][1,4,5]oxathiazocine-2(3H)-carboxylate 5,5-dioxide] gave an inhibition at 0.1 µM [1] greater than 50%.
With `Cn1cc2c(c1C(=O)Nc1cc(F)c(F)c(F)c1)OCC1CCCC1NS2(=O)=O` (racemic) [Example E28, cis (5aR,8aS and 5aS,8aR)-2-methyl-N-(3,4,5-trifluorophenyl)-5a,6,7,8,8a,9-hexahydro-2H,5H-cyclopenta[f]pyrrolo[3,4-b][1,4,5]oxathiazocine-1-carboxamide 4,4-dioxide] the inhibition at 0.1 µM [1] was greater than 50% and the EC50 was less than 1000 nM.
